pKd: −log10 of the molar value.
Columns and labels:
[1] = target: T1, dFABP (Drosophila brain-type FABP) (Drosophila melanogaster, UniProt Q9VGM2); assay: isothermal titration calorimetry; assay type: binding
T1 sequence (Q9VGM2 1-130): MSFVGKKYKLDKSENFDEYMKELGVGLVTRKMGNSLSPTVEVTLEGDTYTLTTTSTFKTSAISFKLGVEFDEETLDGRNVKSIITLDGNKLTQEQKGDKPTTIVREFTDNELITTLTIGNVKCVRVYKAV

[2] = target: T1, dFABP (Drosophila brain-type FABP); assay: intrinsic tyrosine fluorescence melting; assay type: binding; settings: GuHCl-purified dFABP; protein:OA 1:2; 20 mM Tris pH 8.0, 1 mM beta-ME

**Q.** `CCCCCCCC/C=C\CCCCCCCC(=O)O` [OA, oleic acid] was tested. Which pKd [1] did it give?
**A.** ~5.80

**Q.** And the “change in Tm” value [2]?
**A.** ~ 5 °C
